Like-named read-outs stand apart in the source and are kept apart here.
Tests used:
[1] = tested on: HBV; assay: PHH screening protocol: HBsAg and HBeAg levels by MSD ELISA; format: cell-based, Hepatitis B Virus; conditions: for EC50: Hepatitis B virus
Experimental: HBV antiviral activity was assessed in primary human hepatocytes (PHH) in a 96-well format. PHH were (Life Technologies, Chicago, 11) plated on collagen coated tissue culture plates using Plating Media containing William's Medium E supplemented with 1% Penicillin/Streptomycin, 4 μg/mL human recombinant insulin, 2 mM glutamax, 15 mM Hepes, 1 μM dexamethasone and 5% fetal bovine serum (Life Technologies, Cat#A12176-01 Life Technologies, Chicago, Ill.). After a 4-hour incubation at 37° C., cells were switched to Maintenance Media (Cat#CM4000-A15564 Life Technologies, Chicago, Ill.) containing William's Medium E supplemented with 0.5% Penicillin/Streptomycin, 6.25 μg/mL human recombinant insulin, 6.25 μg/mL human transferrin, 6.25 ng/mL selenous acid, 1.25 mg/mL bovine serum albumin, 5.35 μg/mL linoleic acid, 2 mM glutamax, 15 mM Hepes, 0.1 μM dexamethasone, 2% fetal bovine serum, and 2% DMSO (Cat#D2650 Sigma, St. Louis, Mo.). On the next day, cells were infected with approximately 500 genome equivalent of selected HBV clinical isolates (21P (GTA), 32P (GTA), 91P (GTA), AD38 (GTD), 65P (GTD) or 30P (GTE); ProteoGenex, Culver City, Calif.) per cell in Maintenance Media supplemented with 4% PEG 8000 (Cat#V3011 Promega, Madison, Wis.). After 24 hour incubation cells were washed three times with William's Medium E and fed with fresh Maintenance Media. Small molecule inhibitors targeting KDMs were serially diluted in Maintenance Media and added to cells at 3 days post infection (p.i.). Media with compounds was replenished every 2-3 days. Media collected on various days was used for determination of HBsAg and HBeAg levels by MSD ELISA, and HBV RNA by qPCR. All data were converted into percentages of the untreated control and non-linear regression was performed to calculate EC50 or CC50 values.

[2] = Alamar Blue cell viability assay; format: cell-based; conditions: human
Experimental: Alamar Blue cell viability reagent (Cat#DAL1100 Life Technologies, Chicago, Ill.) was diluted 1 to 10 in Maintenance Media and added to the cells. Cells were incubated for 4 h at 37° C. and the fluorescence signal, which is proportional to the number of live cells, was read using a fluorimeter with excitation/emission spectra set at 560/590 nm, respectively. Data were converted into percentages of the untreated control and non-linear regression was performed to calculate CC50 values.
PHH were plated in collagen coated tissue culture plates in Plating Media and after 4-hour incubation at 37° C., cells were switched to Maintenance Media. On the next day, the cells were infected with 500 genome equivalents per cell of Genotype-A clinical isolate 21P (ProteoGenex, Culver City, Calif.) in 100 μl Maintenance Media supplemented with 4% PEG 8000 (Cat#V3011 Promega, Madison, Wis.). After an overnight incubation the inoculum was removed and the cells were washed three times with William's Media E and maintained in Maintenance Media. […] Following the transfection, the cells were incubated at 37° C. in a humidified incubator and media was changed every 3-4 days. The assay was terminated on day 14 post infection and cell viability was assessed by Alamar Blue. The collected medium was used for determination of HBsAg and HBeAg levels by MSD ELISA while cells were processed for determination of HBV RNA using qPCR.

Structure (SMILES): CCOC(=O)c1ccnc(CNCC(=O)N(CC)CCN(C)C)c1 [Example 8]
- EC50 ([1]; 336 h, read-out: HBsAg EC50, virus AD38, PHH donor 8130, d 25, compound removed after 14 days of treatment): 80 nM
- EC50 ([1]; 336 h, read-out: HBsAg EC50, virus AD38, PHH donor 8130, d 31, compound removed after 14 days of treatment): 12 nM
- EC50 ([1]; 408 h, read-out: HBsAg EC50, virus 21P (GTA), PHH 4239, day 17 p.i.): 700 nM
- EC50 ([1]; 408 h, read-out: HBsAg EC50, virus 21P (GTA), PHH 8130, day 17 p.i.): 200 nM
- EC50 ([1]; 408 h, read-out: HBsAg EC50, virus 21P (GTA), PHH 8181, day 17 p.i.): 20 nM
- EC50 ([1]; 408 h, read-out: HBsAg EC50, virus 30P (GTE), PHH 4239, day 17 p.i.): 300 nM
- EC50 ([1]; 408 h, read-out: HBsAg EC50, virus 30P (GTE), PHH 8130, day 17 p.i.): 200 nM
- EC50 ([1]; 408 h, read-out: HBsAg EC50, virus 30P (GTE), PHH 8181, day 17 p.i.): < 5 nM
- EC50 ([1]; 408 h, read-out: HBsAg EC50, virus 32P (GTA), PHH 4239, day 17 p.i.): 30 nM
- EC50 ([1]; 408 h, read-out: HBsAg EC50, virus 32P (GTA), PHH 8130, day 17 p.i.): 80 nM
- EC50 ([1]; 408 h, read-out: HBsAg EC50, virus 32P (GTA), PHH 8181, day 17 p.i.): < 2 nM
- EC50 ([1]; 408 h, read-out: HBsAg EC50, virus 65P (GTD), PHH 4239, day 17 p.i.): 300 nM
- EC50 ([1]; 408 h, read-out: HBsAg EC50, virus 65P (GTD), PHH 8130, day 17 p.i.): 2400 nM
- EC50 ([1]; 408 h, read-out: HBsAg EC50, virus 65P (GTD), PHH 8181, day 17 p.i.): < 2 nM
- EC50 ([1]; 408 h, read-out: HBsAg EC50, virus 91P (GTA), PHH 4239, day 17 p.i.): 60 nM
- EC50 ([1]; 408 h, read-out: HBsAg EC50, virus 91P (GTA), PHH 8130, day 17 p.i.): 30 nM
- EC50 ([1]; 408 h, read-out: HBsAg EC50, virus 91P (GTA), PHH 8181, day 17 p.i.): < 6 nM
- EC50 ([1]; 408 h, read-out: HBsAg EC50, virus AD38 (GTD), PHH 4239, day 17 p.i.): 2000 nM
- EC50 ([1]; 408 h, read-out: HBsAg EC50, virus AD38 (GTD), PHH 8130, day 17 p.i.): 1400 nM
- EC50 ([1]; 408 h, read-out: HBsAg EC50, virus AD38 (GTD), PHH 8181, day 17 p.i.): < 5 nM
- EC50 ([1]; read-out: EC50 values (HBsAg), PHH donors 4239 and 8130, across patient viruses): 30 to 2400 nM
- EC50 ([1]; read-out: HBeAg EC50, D 8, PHH donor 8181, virus 21p): > 50000 nM
- EC50 ([1]; read-out: HBeAg EC50, D 13, PHH donor 8181, virus 21p): 160 nM
- EC50 ([1]; read-out: HBeAg EC50, D 17, PHH donor 8181, virus 21p): < 20 nM
- EC50 ([1]; read-out: HBeAg EC50, D 22, PHH donor 8181, virus 21p): < 20 nM
- EC50 ([1]; read-out: HBeAg EC50, D 27, PHH donor 8181, virus 21p): < 20 nM
- EC50 ([1]; read-out: HBeAg EC50, D 31, PHH donor 8181, virus 21p): < 20 nM
- EC50 ([1]; read-out: HBeAg EC50, HBV-infected PHH): 188 nM
- EC50 ([1]; read-out: HBsAg EC50, D 8, PHH donor 8181, virus 21p): > 50000 nM
- EC50 ([1]; read-out: HBsAg EC50, D 13, PHH donor 8181, virus 21p): 150 nM
- EC50 ([1]; read-out: HBsAg EC50, D 17, PHH donor 8181, virus 21p): < 20 nM
- EC50 ([1]; read-out: HBsAg EC50, D 22, PHH donor 8181, virus 21p): < 20 nM
- EC50 ([1]; read-out: HBsAg EC50, D 27, PHH donor 8181, virus 21p): < 20 nM
- EC50 ([1]; read-out: HBsAg EC50, D 31, PHH donor 8181, virus 21p): < 20 nM
- EC50 ([1]; read-out: HBsAg EC50, HBV-infected PHH): 67 nM
- inhibition of HBV HBsAg and HBeAg secretion compared to untreated cells ([1]; PHH donor 8181): more than 10 fold
- time dependency of anti HBV activity ([1]; PHH donor 8181 infected with patient virus 21p (GTA)): time dependent
- CC50 [2]: 28200 nM
